Holding throughout (assay type): binding
The target in experiment [1] is T1, Bcl-b (Homo sapiens, UniProt Q9HD36).
T1 construct: without their C-terminal transmembrane domain; GST; made in house
T1 sequence (Q9HD36 1-182 limits assumed): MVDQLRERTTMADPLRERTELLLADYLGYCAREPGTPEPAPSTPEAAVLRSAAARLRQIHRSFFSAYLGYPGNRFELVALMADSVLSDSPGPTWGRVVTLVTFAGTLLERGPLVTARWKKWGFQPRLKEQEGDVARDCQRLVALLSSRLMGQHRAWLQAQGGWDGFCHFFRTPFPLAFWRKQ
Briefly: Bclb/Bim fluorescence polarization assay (FPA). Particulars: BIM BH3 peptide 5 nM, Bcl-b 40 nM, Ki calculated from FPA data. The source says:
(§1) Compounds were profiled for their ability to disrupt in vitro binding interactions in fluorescence polarization assays (FPAs) using synthetic fluorochrome-labeled Bcl homology 3 (BH3) peptides derived from BIM [(FAM)-Ahx-[…]-NH2 (SEQ ID NO: 1) (GenBank Accession No. O43521)] or BAK [Ac-GQVGRQLAIIGE-LYS(FAM)-INR-NH2 (SEQ ID NO:2) (GenBank Accession No. Q16611) amino acid sequences and four bacterial recombinant proteins [Bcl-b (GenBank Accession No. Q9HD36), Bcl-2 (GenBank Accession No. P10415), Bcl-Xl (GenBank Accession No. Q07817), Mcl-1 (GenBank Accession No. Q07820)] without their C-terminal transmembrane domain. Proteins were purified from bacterial lysates using their glutathione S-transferase (GST)-tag (Bcl-b, Bcl-2, Mcl-1) or His6-tag (Bcl-Xl) and following one-step affinity chromatography procedures. Dissociation constants (Kd) for peptide binding protein were determined by fluorescence polarization in FPAs measuring BIM BH3 peptide binding Bcl-b, Mcl-1 or Bcl-2 protein or BAK BH3 peptide binding Bcl-Xl protein. The Kd values were generated by fitting the experimental data using a sigmoidal dose-response nonlinear regression model.
(§2) Compound inhibitory concentration values, IC50 (50% reduction in fluorescence polarization), were determined using fluorochrome-labeled BH3 peptides and recombinant Bcl proteins in fluorescence polarization assays (FPAs). Compounds diluted in DMSO (0.5 ul) were transferred (in duplicate) to individual wells of a 384-well plate. The fluorochrome-labeled peptide was added followed by recombinant protein addition. Each binding FPA reaction (50 ul) contained BIM BH3 peptide (5 nM) or BAK BH3 peptide (1.5 nM) and Bcl-b (40 nM), Mcl-1 (28 nM), Bcl-2 (11 nM) or Bcl-Xl. (5 nM) protein suspended in assay buffer [20 mM sodium phosphate, pH 7.4, 1 mM EDTA, 50 mM NaCl., 0.05% Pluronic F68]. Reaction mixtures were incubated at ambient temperature for 60 minutes prior to measuring polarization (mP) using an Analyst (LJL, Molecular Devices, Sunnyvale, Calif.) programmed to detect an emission wavelength of 530 nm after excitation (excitation wavelength=485 nm).
(§3) Competitive compound inhibition constants (Ki) were calculated using FPA experimental data and a mathematical equation, Ki=[I]50/([L]50/Kd+[P]0/Kd+1), where [I]50 denotes free inhibitor concentration at 50% inhibition, [L]50 is free labeled ligand concentration at 50% inhibition, [P]0 is free protein concentration at 0% inhibition, and Kd is the dissociation constant of the protein-ligand complex.

For experiment [2], the target named is T2, Mcl-1 (Homo sapiens, UniProt Q07820).
T2 construct: without their C-terminal transmembrane domain; GST; made in house
Briefly: Mcl-1/Bim fluorescence polarization assay (FPA). As to conditions: BIM BH3 peptide 5 nM, Mcl-1 28 nM, Ki calculated from FPA data.
Text: as §1, §2, §3

For experiment [3], the target named is T3, Bcl-2 (Homo sapiens, UniProt P10415).
T3 construct: without their C-terminal transmembrane domain; GST; made in house
Briefly: Bcl2/Bim fluorescence polarization assay (FPA). Particulars: BIM BH3 peptide 5 nM, Bcl-2 11 nM, Ki calculated from FPA data.
Text: as §1, §2, §3

The Ki is the dissociation constant of the complex between target and ligand, obtained from inhibition or displacement.

T2 sequence (Q07820 1-327 limits assumed): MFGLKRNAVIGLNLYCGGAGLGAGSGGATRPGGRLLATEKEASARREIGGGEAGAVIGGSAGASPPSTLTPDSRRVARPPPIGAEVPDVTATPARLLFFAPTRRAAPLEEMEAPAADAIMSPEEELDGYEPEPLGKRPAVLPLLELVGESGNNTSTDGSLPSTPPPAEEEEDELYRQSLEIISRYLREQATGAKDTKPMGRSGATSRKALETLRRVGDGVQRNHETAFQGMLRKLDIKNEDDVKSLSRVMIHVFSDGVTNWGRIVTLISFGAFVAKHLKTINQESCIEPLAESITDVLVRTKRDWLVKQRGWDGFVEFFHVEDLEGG
T3 sequence (P10415 1-211 limits assumed): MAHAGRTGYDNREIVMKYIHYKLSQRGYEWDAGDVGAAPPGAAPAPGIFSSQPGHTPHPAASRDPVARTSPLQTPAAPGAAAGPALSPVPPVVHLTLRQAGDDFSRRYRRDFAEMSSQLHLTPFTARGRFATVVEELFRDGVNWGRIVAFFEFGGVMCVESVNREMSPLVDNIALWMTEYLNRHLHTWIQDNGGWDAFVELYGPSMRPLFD

For the molecule `O=C(NCc1cccc(CN(Cc2ccc(F)cc2)S(=O)(=O)c2cc(Cl)cc(Cl)c2O)c1)c1cc(O)nc(O)c1` [Example 2, N-(3-((3,5-Dichloro-N-(4-fluorobenzyl)-2-hydroxyphenylsulfonamido)methyl)benzyl)-2,6-dihydroxyisonicotinamide], the Ki in experiment [1] was 0.05 µM; in experiment [2], 0.02 µM; in experiment [3], 0.02 µM.

Consider `N#Cc1ccc(S(=O)(=O)NCc2cccc(CN(Cc3ccc(-c4ccccc4)cc3)S(=O)(=O)c3cc(Cl)cc(Cl)c3O)c2)cc1` [Example 4, N-(Biphenyl-4-ylmethyl)-3,5-dichloro-N-(3-((4-cyanophenylsulfonamido)methyl)benzyl)-2-hydroxybenzenesulfonamide], for which the Ki in experiment [1] is 0.28 µM; in experiment [2], 0.06 µM; in experiment [3] it was 0.06 µM.

As for `Cc1ccc(S(=O)(=O)N(Cc2cc(CN(Cc3ccc(F)cc3)S(=O)(=O)c3cc(Cl)cc(Cl)c3O)cc(Oc3ccc(F)cc3)c2)CC(C)C)cc1` [Example 8, 3,5-Dichloro-N-(4-fluorobenzyl)-N-(3-(4-fluorophenoxy)-5-((N-isobutyl-4-methylphenylsulfonamido)methyl)benzyl)-2-hydroxybenzenesulfonamide], the Ki was 0.1 µM in experiment [1], 0.04 µM in experiment [2] and 0.01 µM in experiment [3].

With `Cc1ccc(S(=O)(=O)N(Cc2ccc(F)cc2)Cc2cc(CNS(=O)(=O)c3cc(Cl)cc(Cl)c3O)cc(-c3ccc(F)cc3)c2)cc1` [Example 13, 3,5-Dichloro-N-((4′-fluoro-5-((N-(4-fluorobenzyl)-4-methylphenylsulfonamido)methyl)biphenyl-3-yl)methyl)-2-hydroxybenzenesulfonamide], the Ki in experiment [1] was 0.09 µM; in experiment [2], 0.03 µM; in experiment [3] it was 0.02 µM.

For `CC(C)CN(Cc1cc(Cl)cc(CN(CC(C)C)S(=O)(=O)c2cc(Cl)cc(Cl)c2O)c1)S(=O)(=O)c1cccnc1` [Example 15], the Ki was 0.08 µM in experiment [1], 0.01 µM in experiment [2] and 0.01 µM in experiment [3].

On to `COc1ccc(S(N)(=O)=O)cc1C(=O)NCc1cccc(CN(Cc2ccc(-c3ccccc3)cc2)S(=O)(=O)c2cc(Cl)cc(Cl)c2O)c1` [Example 39, N-(3-((N-(biphenyl-4-ylmethyl)-3,5-dichloro-2-hydroxyphenyl-sulfonamido)methyl)benzyl)-2-methoxy-5-sulfamoylbenzamide], for which the Ki was 0.289 µM in experiment [1], 0.207 µM in experiment [2] and 0.153 µM in experiment [3].

Take `O=C(O)c1ccc(S(=O)(=O)NCc2cccc(CN(Cc3ccc(-c4ccccc4)cc3)S(=O)(=O)c3cc(Cl)cc(Cl)c3O)c2)cc1` [Example 49, 4-(N-(3-((N-(biphenyl-4-ylmethyl)-3,5-dichloro-2-hydroxyphenyl-sulfonamido)methyl)benzyl)sulfamoyl)benzoic acid]: the Ki in experiment [1] was 0.138 µM; in experiment [2], 0.204 µM; in experiment [3], 0.347 µM.

Consider `CS(=O)(=O)c1ccc(CN(Cc2cccc(CNS(=O)(=O)c3cc(Cl)cc(Cl)c3O)c2)S(=O)(=O)c2cc(Cl)cc(Cl)c2O)cc1` [Example 56, 3,5-dichloro-N-(3-((3,5-dichloro-2-hydroxyphenyl-sulfonamido)methyl)benzyl)-2-hydroxy-N-(4-(methylsulfonyl)benzyl) benzenesulfonamide], for which the results for the Ki in experiment [1], in experiment [2] and in experiment [3] were 0.103 µM, 0.187 µM and 0.148 µM, respectively.

Turning to `CCN(CC)CCOc1ccc(CN(Cc2cccc(CNS(=O)(=O)c3cc(Cl)cc(Cl)c3O)c2)S(=O)(=O)c2cc(Cl)cc(Cl)c2O)cc1` [Example 61, 3,5-dichloro-N-(3-((3,5-dichloro-2-hydroxyphenylsulfonamido)methyl)benzyl)-N-(4-(2-(diethylamino)ethoxy)benzyl)-2-hydroxybenzenesulfonamide], the Ki in experiment [1] was 0.133 µM; in experiment [2] it was 1.02 µM; in experiment [3] it was 0.5 µM.

On to `O=S(=O)(NCc1cccc(CN(Cc2ccccc2SC(F)(F)F)S(=O)(=O)c2cc(Cl)cc(Cl)c2O)c1)c1cc(Cl)cc(Cl)c1O` [Example 64], for which the Ki in experiment [1] was 0.074 µM; in experiment [2], 0.169 µM; in experiment [3], 0.096 µM.

For the molecule `CC(C)CN(Cc1cc(Cl)cc(CN(CC(C)C)S(=O)(=O)c2cc(Cl)cc(Cl)c2O)c1)C(=O)c1ccc(SC(F)(F)F)cc1` [Example 71, N-(3-chloro-5-((3,5-dichloro-2-hydroxy-N-isobutylphenylsulfonamido)methyl)benzyl)-N-isobutyl-4-(trifluoromethylthio)benzamide], the results for the Ki in experiment [1], in experiment [2] and in experiment [3] were 0.247 µM, 0.97 µM and 0.469 µM, respectively.

On to `CC(C)CN(Cc1cc(Cl)cc(CN(CC(C)C)S(=O)(=O)c2cc(Cl)cc(Cl)c2O)c1)C(=O)c1cccc(SC(F)(F)F)c1` [Example 72, N-(3-chloro-5-((3,5-dichloro-2-hydroxy-N-isobutylphenylsulfonamido)methyl)benzyl)-N-isobutyl-3-(trifluoromethylthio)benzamide], for which the figures for the Ki in experiment [1], in experiment [2] and in experiment [3] were 0.182 µM, 1.15 µM and 0.349 µM, respectively.

For the molecule `CC(C)CN(Cc1cc(Cl)cc(CN(CC(C)C)S(=O)(=O)c2cc(Cl)cc(Cl)c2O)c1)C(=O)c1cccc(S(=O)(=O)C(F)(F)F)c1` [Example 73, N-(3-chloro-5-((3,5-dichloro-2-hydroxy-N-isobutylphenylsulfonamido)methyl)benzyl)-N-isobutyl-3-(trifluoromethylsulfonyl)benzamide], the Ki in experiment [1] was 0.144 µM; in experiment [2], 0.384 µM; in experiment [3], 0.319 µM.

For `CS(=O)(=O)c1cccc(CN(Cc2cc(CNC(=O)c3cccc(Oc4ccccc4)c3)cc(Oc3ccc(F)cc3)c2)S(=O)(=O)c2cc(Cl)cc(Cl)c2O)c1` [Example 77, N-(3-((3,5-dichloro-2-hydroxy-N-(3-(methylsulfonyl)benzyl)phenylsulfonamido)methyl)-5-(4-fluorophenoxy)benzyl)-3-phenoxybenzamide], the values for the Ki in experiment [1], in experiment [2] and in experiment [3] were 0.077 µM, 0.194 µM and 0.133 µM, respectively.

For `O=S(=O)(c1cc(Cl)cc(Cl)c1)N(Cc1ccc(F)cc1)Cc1cccc(CN(Cc2ccc(F)cc2)S(=O)(=O)c2cc(Cl)cc(Cl)c2O)n1` [Example 91, 3,5-dichloro-N-((6-((3,5-dichloro-N-(4-fluorobenzyl)phenylsulfonamido)methyl)pyridin-2-yl)methyl)-N-(4-fluorobenzyl)-2-hydroxybenzenesulfonamide], the Ki was 0.033 µM in experiment [1], 0.052 µM in experiment [2] and 0.042 µM in experiment [3].

Consider `O=S(=O)(c1cc(Cl)cc(Cl)c1)N(Cc1ccc(F)cc1)Cc1cccc(CN(Cc2ccc(F)cc2)S(=O)(=O)c2cc(Cl)cc(Cl)c2O)[n+]1[O-]` [Example 92, 2-((3,5-dichloro-N-(4-fluorobenzyl)-2-hydroxyphenylsulfonamido)methyl)-6-((3,5-dichloro-N-(4-fluorobenzyl)phenylsulfonamido)methyl)pyridine 1-oxide], for which the Ki was 0.012 µM in experiment [1], 0.06 µM in experiment [2] and 0.046 µM in experiment [3].

As to `O=S(=O)(c1cccc(CN(Cc2ccc(F)cc2)S(=O)(=O)c2cc(Cl)cc(Cl)c2O)c1)N(Cc1ccc(F)cc1)Cc1cc(Cl)cc(Cl)c1` [Example 94, 3,5-Dichloro-N-(3-(N-(3,5-dichlorobenzyl)-N-(4-fluorobenzyl)sulfamoyl)benzyl)-N-(4-fluorobenzyl)-2-hydroxybenzenesulfonamide], the Ki in experiment [1] was 0.04 µM; in experiment [2], 0.06 µM; in experiment [3], 0.06 µM.
